Values joined by “and” are separate entries in the source; they are usually repeats but may differ in a detail not shown here. Identical values can stand only once. Bridge positions count the residues as written; N and C are the ends. Square brackets hold non-standard residues; d marks the D form. Ends that are not written are not given here. Peptide text beside a SMILES is read from it. * marks the point of attachment. Hyp = O=C(O)[C@@H]1C[C@@H](O)CN1; Acm = CC(=O)NC*

This test deals with OCT binding sites, elasmobranch electric organ synaptosomes (Diplobatis ommata, UniProt P56698). Description: biochemical. To be noted: pKi. Set-up: species or system Ommata dyscopyge (marine electric ray).
OCT binding sites, elasmobranch electric organ synaptosomes, sequence (P56698 whole entry, looked up): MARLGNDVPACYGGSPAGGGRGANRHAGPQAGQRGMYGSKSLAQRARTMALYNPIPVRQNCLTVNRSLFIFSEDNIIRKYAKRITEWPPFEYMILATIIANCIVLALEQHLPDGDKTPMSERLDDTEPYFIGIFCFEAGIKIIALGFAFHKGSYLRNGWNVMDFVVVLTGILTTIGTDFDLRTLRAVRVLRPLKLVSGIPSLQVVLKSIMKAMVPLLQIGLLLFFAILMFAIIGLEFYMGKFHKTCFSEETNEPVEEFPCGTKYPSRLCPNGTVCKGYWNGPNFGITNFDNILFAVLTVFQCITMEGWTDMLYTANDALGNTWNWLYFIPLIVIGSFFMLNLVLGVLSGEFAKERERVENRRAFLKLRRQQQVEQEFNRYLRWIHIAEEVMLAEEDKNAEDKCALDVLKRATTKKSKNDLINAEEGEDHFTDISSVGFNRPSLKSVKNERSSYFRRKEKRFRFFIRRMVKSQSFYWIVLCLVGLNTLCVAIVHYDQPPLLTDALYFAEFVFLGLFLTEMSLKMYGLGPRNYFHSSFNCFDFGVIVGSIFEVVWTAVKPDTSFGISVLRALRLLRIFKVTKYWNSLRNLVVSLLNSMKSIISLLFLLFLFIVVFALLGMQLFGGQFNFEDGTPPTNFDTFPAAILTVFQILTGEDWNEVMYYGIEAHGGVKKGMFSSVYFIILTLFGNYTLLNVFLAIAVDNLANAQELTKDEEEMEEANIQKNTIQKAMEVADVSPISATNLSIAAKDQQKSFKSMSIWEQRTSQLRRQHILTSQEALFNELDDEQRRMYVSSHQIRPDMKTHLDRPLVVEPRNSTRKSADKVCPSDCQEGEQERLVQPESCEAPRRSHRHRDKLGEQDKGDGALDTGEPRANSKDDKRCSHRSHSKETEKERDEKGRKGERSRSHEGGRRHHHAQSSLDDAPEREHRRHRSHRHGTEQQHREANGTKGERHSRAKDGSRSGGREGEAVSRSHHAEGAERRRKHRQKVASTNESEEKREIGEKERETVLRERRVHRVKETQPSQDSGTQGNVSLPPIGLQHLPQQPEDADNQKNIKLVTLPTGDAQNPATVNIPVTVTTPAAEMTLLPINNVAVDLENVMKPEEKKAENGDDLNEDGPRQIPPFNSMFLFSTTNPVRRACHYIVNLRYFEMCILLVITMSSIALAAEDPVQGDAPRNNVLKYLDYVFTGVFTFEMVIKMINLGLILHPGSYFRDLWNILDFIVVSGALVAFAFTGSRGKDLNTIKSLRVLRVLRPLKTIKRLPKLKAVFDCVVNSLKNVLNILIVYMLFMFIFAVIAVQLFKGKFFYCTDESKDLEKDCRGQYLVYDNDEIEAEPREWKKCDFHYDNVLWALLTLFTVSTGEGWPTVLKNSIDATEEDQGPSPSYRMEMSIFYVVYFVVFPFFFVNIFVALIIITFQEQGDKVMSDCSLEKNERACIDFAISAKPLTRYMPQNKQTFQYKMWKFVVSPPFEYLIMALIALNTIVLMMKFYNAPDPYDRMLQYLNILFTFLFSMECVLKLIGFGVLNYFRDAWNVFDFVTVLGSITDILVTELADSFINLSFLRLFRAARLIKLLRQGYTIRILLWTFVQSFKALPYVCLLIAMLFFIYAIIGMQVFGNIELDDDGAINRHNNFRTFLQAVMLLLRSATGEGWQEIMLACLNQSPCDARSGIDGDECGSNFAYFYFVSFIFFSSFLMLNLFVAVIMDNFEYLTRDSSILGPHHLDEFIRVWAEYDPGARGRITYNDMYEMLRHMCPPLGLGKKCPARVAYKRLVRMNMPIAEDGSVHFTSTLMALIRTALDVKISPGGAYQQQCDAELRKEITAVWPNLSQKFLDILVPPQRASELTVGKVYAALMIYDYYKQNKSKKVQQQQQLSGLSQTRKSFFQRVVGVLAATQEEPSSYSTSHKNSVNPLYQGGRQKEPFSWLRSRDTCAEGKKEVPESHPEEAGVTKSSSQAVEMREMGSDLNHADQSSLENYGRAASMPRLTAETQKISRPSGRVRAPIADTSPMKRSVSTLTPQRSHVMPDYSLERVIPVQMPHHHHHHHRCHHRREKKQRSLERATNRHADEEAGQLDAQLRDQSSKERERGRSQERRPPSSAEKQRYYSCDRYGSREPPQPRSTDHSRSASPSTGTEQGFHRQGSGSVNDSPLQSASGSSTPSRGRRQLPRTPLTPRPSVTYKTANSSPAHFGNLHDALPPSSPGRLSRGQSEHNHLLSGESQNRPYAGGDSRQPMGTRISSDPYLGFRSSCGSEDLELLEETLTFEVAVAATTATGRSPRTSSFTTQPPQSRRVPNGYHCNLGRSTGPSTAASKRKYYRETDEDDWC
Broadly, the Ki is a measure of affinity in units of concentration, obtained from inhibition or displacement. A lower Ki goes with higher affinity. The compound `CSCC[C@@H]1NC(=O)[C@H](CC(C)C)NC(=O)[C@H](CCCNC(=N)N)NC(=O)[C@H](CO)NC(=O)[C@@H](N)CSSC[C@@H](C(N)=O)NC(=O)[C@H](CO)NC(=O)CNC(=O)[C@H]([C@@H](C)O)NC(=O)[C@H](CSCNC(C)=O)NC(=O)[C@H](CSCNC(C)=O)NC(=O)[C@H](CC(=O)O)NC(=O)[C@H](Cc2ccc(O)cc2)NC1=O` [MVIIA 161] (H-CSRLMYDC(Acm)C(Acm)TGSC-NH2; disulfide 1-13) showed a Ki of over 1000 µM.
On to `C[C@@H]1NC(=O)[C@H](C)NC(=O)[C@H](CCCCN)NC(=O)[C@H](CO)NC(=O)CNC(=O)[C@H](CCCCN)NC(=O)[C@H](CO)NC(=O)[C@H](CCCCN)NC(=O)[C@@H](N)CSSC[C@@H](C(N)=O)NC(=O)[C@H](CCCCN)NC(=O)CNC(=O)[C@H](CO)NC(=O)[C@H](CCCNC(=N)N)NC1=O` [MVIIA 176] (H-CKSKGSKAARSGKC-NH2; disulfide 1-14), for which the Ki was 1.82 µM.
As to `CC(=O)NCSC[C@@H]1NC(=O)[C@H](CO)NC(=O)CNC(=O)[C@H]([C@@H](C)O)NC(=O)[C@H](CSCNC(C)=O)NC(=O)[C@@H](N)CSSC[C@@H](C(N)=O)NC(=O)[C@H](CCCCN)NC(=O)CNC(=O)[C@H](CO)NC(=O)[C@H](CCCNC(=N)N)NC1=O` [MVIIA 160], the affinity corresponds to a Ki of 120 µM.
Consider `CSCC[C@@H]1NC(=O)[C@H](CC(C)C)NC(=O)[C@H](CCCNC(=N)N)NC(=O)[C@H](CO)NC(=O)[C@@H]2CSSC[C@H](NC(=O)[C@H](CC(=O)O)NC(=O)[C@H](Cc3ccc(O)cc3)NC1=O)C(=O)N[C@H](C(N)=O)CSSC[C@H](N)C(=O)N[C@@H](CCCCN)C(=O)NCC(=O)N[C@@H](CCCCN)C(=O)NCC(=O)N[C@@H](C)C(=O)N[C@@H](CCCCN)C(=O)N2` [MVIIA 172], for which the affinity corresponds to a Ki of 20.9 µM.
As to `C[C@@H]1NC(=O)[C@H](C)NC(=O)[C@H](CO)NC(=O)[C@H](CO)NC(=O)CNC(=O)[C@@H]2C[C@@H](O)CN2C(=O)[C@H](CO)NC(=O)[C@H](CCCCN)NC(=O)[C@@H](N)CSSC[C@@H](C(=O)N[C@@H](Cc2ccc(O)cc2)C(N)=O)NC(=O)[C@H](CCCNC(=N)N)NC(=O)[C@H](CCCCN)NC(=O)[C@H]([C@@H](C)O)NC(=O)[C@H](Cc2ccc(O)cc2)NC(=O)[C@@H]2C[C@@H](O)CN2C(=O)[C@H](CC(N)=O)NC1=O` [GVIA 180] (H-CKS[Hyp]GSSAAN[Hyp]YTKRCY-NH2; disulfide 1-16), the affinity corresponds to a Ki of 123 µM.
`C[C@@H]1NC(=O)CNC(=O)[C@H](CCCCN)NC(=O)CNC(=O)[C@H](CCCCN)NC(=O)[C@@H](N)CSSC[C@@H](C(=O)N[C@@H](CO)C(=O)N[C@@H](CCCNC(=N)N)C(N)=O)NC(=O)[C@H](CCCCN)NC1=O` [MVIIA 170]: the inhibition constant Ki was < 1 µM and 0.282 µM.
AKGKGAKASR-NH2 [MVIIA 174]: the Ki was < 1 µM and 0.525 µM.
The compound `C[C@@H]1NC(=O)CNC(=O)[C@H](CCCCN)NC(=O)CNC(=O)[C@H](CCCCN)NC(=O)[C@@H](N)CSSC[C@@H](C(N)=O)NC(=O)[C@H](CCCCN)NC(=O)CNC(=O)[C@H](CO)NC(=O)[C@H](CCCNC(=N)N)NC(=O)[C@H](C)NC(=O)[C@H](C)NC(=O)[C@H](CCCCN)NC1=O` [MVIIA 175] (H-CKGKGAKAARSGKC-NH2; disulfide 1-14) gave an inhibition constant (Ki) of 3.63 µM.
`CSCC[C@@H]1NC(=O)[C@H](CC(C)C)NC(=O)[C@H](CCCNC(=N)N)NC(=O)[C@H](CO)NC(=O)[C@H](C)NC(=O)[C@H](CCCCN)NC(=O)[C@H](C)NC(=O)CNC(=O)[C@H](CCCCN)NC(=O)CNC(=O)[C@H](CCCCN)NC(=O)[C@@H](N)CSSC[C@@H](C(N)=O)NC(=O)[C@H](C)NC(=O)[C@H](CC(=O)O)NC(=O)[C@H](Cc2ccc(O)cc2)NC1=O` [MVIIA 171] (H-CKGKGAKASRLMYDAC-NH2; disulfide 1-16) showed a Ki of 4.68 µM.
In turn, `C[C@@H]1NC(=O)[C@H](CO)NC(=O)[C@H](CO)NC(=O)CNC(=O)[C@@H]2C[C@@H](O)CN2C(=O)[C@H](CO)NC(=O)[C@H](CCCCN)NC(=O)[C@@H](N)CSSC[C@@H](C(N)=O)NC(=O)[C@H](C)NC(=O)[C@H](CC(N)=O)NC(=O)[C@H](Cc2ccc(O)cc2)NC(=O)[C@H](CO)NC(=O)[C@H]([C@@H](C)O)NC(=O)[C@@H]2C[C@@H](O)CN2C(=O)[C@H](CO)NC1=O` [GVIA 177] (H-CKS[Hyp]GSSAS[Hyp]TSYNAC-NH2; disulfide 1-16) displayed a Ki of over 1000 µM.
In the case of `CSCC[C@@H]1NC(=O)[C@H](CC(C)C)NC(=O)[C@H](CCCNC(=N)N)NC(=O)[C@H](CO)NC(=O)[C@H](CSCNC(C)=O)NC(=O)[C@H](CCCCN)NC(=O)[C@H](C)NC(=O)CNC(=O)[C@H](CCCCN)NC(=O)CNC(=O)[C@H](CCCCN)NC(=O)[C@@H](N)CSSC[C@@H](C(N)=O)NC(=O)[C@H](CSCNC(C)=O)NC(=O)[C@H](CC(=O)O)NC(=O)[C@H](Cc2ccc(O)cc2)NC1=O` [MVIIA 163], the Ki was 219 µM.
For `CC(=O)NCSC[C@@H]1NC(=O)[C@H](CCCCN)NC(=O)[C@H](C)NC(=O)CNC(=O)[C@H](CCCCN)NC(=O)CNC(=O)[C@H](CCCCN)NC(=O)[C@@H](N)CSSC[C@@H](C(N)=O)NC(=O)[C@H](CCCCN)NC(=O)CNC(=O)[C@H](CO)NC(=O)[C@H](CCCNC(=N)N)NC(=O)[C@H](CSCNC(C)=O)NC1=O` [MVIIA 162] (H-CKGKGAKC(Acm)C(Acm)RSGKC-NH2; disulfide 1-14), the Ki is < 1 µM and 0.17 µM.

The values above are taken from patent US5051403A (priority 1989, dated 1991).
